Earlier results, collected in patent US10028917B2, “Beclomethasone dipropionate compositions in modified-release gastro-resistant microspheres and process for obtaining them” (SOFAR SPA, priority 2010, dated 2018).

Conditions: relative to hydrocortisone

In the case of `CCC(=O)OCC(=O)[C@@]1(OC(=O)CC)[C@@H](C)C[C@H]2[C@@H]3CCC4=CC(=O)C=C[C@]4(C)[C@@]3(Cl)[C@@H](O)C[C@@]21C` [BDP, Beclomethasone dipropionate], the “times more powerful than hydrocortisone” value is listed as 500 times.
